{"source": "patent US10093611B2", "about": "“Benzocycloalkenes as antifungal agents” (Bayer Intellectual Property GmbH, priority 2010, dated 2018)", "key": {"Venturia inaequalis": {"test_system": "Venturia inaequalis", "assay": "In vivo preventive test on Venturia inaequalis (apples)", "settings": "100 ppm of active ingredient, evaluated 10 days after inoculation", "experimental": "EXAMPLE J: IN VIVO PREVENTIVE TEST ON VENTURIA INAEQUALIS (APPLES) Solvent: 24.5 parts by weight of acetone • 24.5 parts by weight of N,N-dimethylacetamide Emulsifier: 1 part by weight of alkylaryl polyglycol ether To produce a suitable preparation of active compound, 1 part by weight of active compound is mixed with the stated amounts of solvent and emulsifier, and the concentrate is diluted with water to the desired concentration. To test for preventive activity, young plants are sprayed with the preparation of active compound at the stated rate of application. After the spray coating has dried on, the plants are inoculated with an aqueous conidia suspension of the causal agent of apple scab (Venturia inaequalis) and then remain for 1 day in an incubation cabinet at approximately 20° C. and a relative atmospheric humidity of 100%. The plants are then placed in a greenhouse at approximately 21° C. and a relative atmospheric humidity of approximately 90%. The test is evaluated 10 days after the inoculation. 0% means an efficacy which corresponds to that of the untreated control, while an efficacy of 100% means that no disease is observed. Under these conditions, total protection is observed at a dose of 100 ppm of active ingredient with the following compounds from table J: […]"}, "Puccinia triticina": {"test_system": "Puccinia triticina", "assay": "In vivo preventive test on Puccinia triticina (wheat)", "settings": "500 ppm of active ingredient, evaluated 8 days after inoculation", "experimental": "EXAMPLE E: IN VIVO PREVENTIVE TEST ON PUCCINIA TRITICINA (WHEAT)\nSolvent: 49 parts by weight of N,N-dimethylacetamide\nEmulsifier: 1 part by weight of alkylaryl polyglycol ether\nTo produce a suitable preparation of active compound, 1 part by weight of active compound or active compound combination is mixed with the stated amounts of solvent and emulsifier, and the concentrate is diluted with water to the desired concentration.\nTo test for preventive activity, young plants are sprayed with the preparation of active compound or active compound combination at the stated rate of application.\nAfter the spray coating has been dried, the plants are sprayed with a spore suspension of Puccinia triticina. The plants remain for 48 hours in an incubation cabinet at approximately 20° C. and a relative atmospheric humidity of approximately 100%.\nThe plants are placed in the greenhouse at a temperature of approximately 20° C. and a relative atmospheric humidity of approximately 80%.\nThe test is evaluated 8 days after the inoculation. 0% means an efficacy which corresponds to that of the untreated control, while an efficacy of 100% means that no disease is observed.\nUnder these conditions, high (at least 85%) to total protection is observed at a dose of 500 ppm of active ingredient with the following compounds from table E: […]"}, "Sphaerotheca fuliginea": {"test_system": "Sphaerotheca fuliginea", "assay": "In vivo preventive test on Sphaerotheca fuliginea (cucumbers)", "settings": "100 ppm of active ingredient, evaluated 7 days after inoculation", "experimental": "EXAMPLE H: IN VIVO PREVENTIVE TEST ON SPHAEROTHECA FULIGINEA (CUCUMBERS) Solvent: 24.5 parts by weight of acetone • 24.5 parts by weight of N,N-dimethylacetamide Emulsifier: 1 part by weight of alkylaryl polyglycol ether To produce a suitable preparation of active compound, 1 part by weight of active compound is mixed with the stated amounts of solvent and emulsifier, and the concentrate is diluted with water to the desired concentration. To test for protect activity, young plants are sprayed with the preparation of active compound at the stated rate of application. After the spray coating has dried on, the plants are inoculated with an aqueous spore suspension of Sphaerotheca fuliginea. The plants are then placed in a greenhouse at approximately 23° C. and a relative atmospheric humidity of approximately 70%. The test is evaluated 7 days after the inoculation. 0% means an efficacy which corresponds to that of the untreated control, while an efficacy of 100% means that no disease is observed. Under these conditions, high (at least 90%) to total protection is observed at a dose of 100 ppm of active ingredient with the following compounds from table H: Under the same conditions, high protection (greater than 80%) is observed at a dose of 500 ppm of active ingredient with compound 7, whereas poor protection (less than 20%) is observed with the isosteric analogue compound CMP2 claimed in WO-2009/016218 as in table H2."}, "[1]": {"test_system": "Blumeria graminis fsp. hordei", "assay": "In vivo preventive test on Blumeria graminis (barley)", "settings": "500 ppm of active ingredient, evaluated 7 days after inoculation", "experimental": "EXAMPLE B: IN VIVO PREVENTIVE TEST ON BLUMERIA GRAMINIS (BARLEY) Solvent: 49 parts by weight of N,N-dimethylacetamide Emulsifier: 1 part by weight of alkylaryl polyglycol ether To produce a suitable preparation of active compound, 1 part by weight of active compound or active compound combination is mixed with the stated amounts of solvent and emulsifier, and the concentrate is diluted with water to the desired concentration. To test for preventive activity, young plants are sprayed with the preparation of active compound or active compound combination at the stated rate of application. After the spray coating has been dried, the plants are dusted with spores of Blumeria graminis fsp. hordei. The plants are placed in the greenhouse at a temperature of approximately 18° C. and a relative atmospheric humidity of approximately 80% to promote the development of mildew pustules. The test is evaluated 7 days after the inoculation. 0% means an efficacy which corresponds to that of the untreated control, while an efficacy of 100% means that no disease is observed. Under these conditions, total protection is observed at a dose of 500 ppm of active ingredient with the following compounds from table B: […]"}, "Leptosphaeria nodorum": {"test_system": "Leptosphaeria nodorum", "assay": "In vivo preventive test on Leptosphaeria nodorum (wheat)", "settings": "500 ppm of active ingredient, evaluated 8 days after inoculation", "experimental": "EXAMPLE D: IN VIVO PREVENTIVE TEST ON LEPTOSPHAERIA NODORUM (WHEAT) Solvent: 49 parts by weight of N,N-dimethylacetamide Emulsifier: 1 part by weight of alkylaryl polyglycol ether To produce a suitable preparation of active compound, 1 part by weight of active compound or the compound combination is mixed with the stated amounts of solvent and emulsifier, and the concentrate is diluted with water to the desired concentration. To test for protective activity, young plants are sprayed with a preparation of active compound or active compound combination at the stated rate of application. After the spray coating has dried on, the plants are sprayed with a spore suspension of Leptosphaeria nodorum. The plants remain for 48 hours in an incubation cabinet at 20° C. and a relative atmospheric humidity of 100%. The plants are placed in a greenhouse at a temperature of approximately 22° C. and a relative atmospheric humidity of approximately 80%. The test is evaluated 8 days after the inoculation. 0% means an efficacy which corresponds to that of the control, while an efficacy of 100% means that no disease is observed. Under these conditions, good (at least 75%) to total protection is observed at a dose of 500 ppm of active ingredient with the following compounds from table D: Under the same conditions, excellent protection (greater than 94%) is observed at a dose of 500 ppm of active ingredient with compound 2, whereas poor protection (less than 30%) is observed with the isosteric analogue compound CMP1 claimed in WO-2009/016218 as in table D2."}}, "data": [{"smiles": "Cc1nn(C)c(F)c1C(=O)N(C1CC1)C(C)C1Cc2ccccc2C1", "note": "(stereo not drawn) [Example 11]", "values": [{"measurement": "Efficacy", "setting": "Venturia inaequalis", "value": 100, "unit": "%"}, {"measurement": "Efficacy", "setting": "Puccinia triticina", "value": 100, "unit": "%"}, {"measurement": "Efficacy", "setting": "Sphaerotheca fuliginea", "value": 92, "unit": "%"}, {"measurement": "Efficacy", "setting": "[1]", "value": 100, "unit": "%"}, {"measurement": "Efficacy", "setting": "Leptosphaeria nodorum", "value": 100, "unit": "%"}]}, {"smiles": "CCc1nn(C)c(F)c1C(=O)N(C1CC1)C(C)C1Cc2ccccc2C1", "note": "(stereo not drawn) [Example 12]", "values": [{"measurement": "Efficacy", "setting": "Venturia inaequalis", "value": 100, "unit": "%"}, {"measurement": "Efficacy", "setting": "Puccinia triticina", "value": 100, "unit": "%"}, {"measurement": "Efficacy", "setting": "Sphaerotheca fuliginea", "value": 95, "unit": "%"}, {"measurement": "Efficacy", "setting": "[1]", "value": 100, "unit": "%"}, {"measurement": "Efficacy", "setting": "Leptosphaeria nodorum", "value": 100, "unit": "%"}]}, {"smiles": "CC(C1Cc2ccccc2C1)N(C(=O)c1cn(C)nc1C(F)F)C1CC1", "note": "(stereo not drawn) [Example 13]", "values": [{"measurement": "Efficacy", "setting": "Venturia inaequalis", "value": 100, "unit": "%"}, {"measurement": "Efficacy", "setting": "Puccinia triticina", "value": 100, "unit": "%"}, {"measurement": "Efficacy", "setting": "Sphaerotheca fuliginea", "value": 95, "unit": "%"}, {"measurement": "Efficacy", "setting": "[1]", "value": 100, "unit": "%"}, {"measurement": "Efficacy", "setting": "Leptosphaeria nodorum", "value": 100, "unit": "%"}]}, {"smiles": "CC(C1Cc2ccccc2C1)N(C(=O)c1c(C(F)F)nn(C)c1F)C1CC1", "note": "(stereo not drawn) [Example 14, N-cyclopropyl-3-(difluoromethyl)-N-[1-(indan-2-yl)ethyl]-5-fluoro-1-methyl-1H-pyrazole-4-carboxamide]", "values": [{"measurement": "Efficacy", "setting": "Venturia inaequalis", "value": 100, "unit": "%"}, {"measurement": "Efficacy", "setting": "Puccinia triticina", "value": 100, "unit": "%"}, {"measurement": "Efficacy", "setting": "Sphaerotheca fuliginea", "value": 100, "unit": "%"}, {"measurement": "Efficacy", "setting": "[1]", "value": 100, "unit": "%"}, {"measurement": "Efficacy", "setting": "Leptosphaeria nodorum", "value": 100, "unit": "%"}]}, {"smiles": "CC(C1CCc2ccccc2C1)N(C(=O)c1c(C(F)F)nn(C)c1F)C1CC1", "note": "(stereo not drawn) [Example 16]", "values": [{"measurement": "Efficacy", "setting": "Venturia inaequalis", "value": 100, "unit": "%"}, {"measurement": "Efficacy", "setting": "Puccinia triticina", "value": 100, "unit": "%"}, {"measurement": "Efficacy", "setting": "Sphaerotheca fuliginea", "value": 100, "unit": "%"}, {"measurement": "Efficacy", "setting": "[1]", "value": 100, "unit": "%"}, {"measurement": "Efficacy", "setting": "Leptosphaeria nodorum", "value": 86, "unit": "%"}]}, {"smiles": "CCC(C1CCc2ccccc2C1)N(C(=O)c1c(C(F)F)nn(C)c1F)C1CC1", "note": "(stereo not drawn) [Example 17]", "values": [{"measurement": "Efficacy", "setting": "Puccinia triticina", "value": 88, "unit": "%"}, {"measurement": "Efficacy", "setting": "Leptosphaeria nodorum", "value": 80, "unit": "%"}]}]}
